{"source": "patent US20230210881A1", "about": "“NICOTINAMIDE MONONUCLEOTIDE DERIVATIVES FOR THE TREATMENT OF BACTERIAL INFECTIONS” (NUVAMID SA, priority 2020, published 2023)", "key": {"[1]": {"test_system": "caecal ligation and puncture (LPC) induced sepsis", "experiment": "Caecal ligation and puncture (LPC) induced sepsis model", "assay_type": "in vivo, mice", "settings": "for survival rate: compared with the control group; for Number of surviving mice: 185 mg/kg i.p. once daily; for bacterial load in the blood (bacterial DNA 16S by RT-PCR): 24 hours after LPC; for bacterial load in the blood (bacterial DNA 16S by RT-PCR) / clinical score (murine sepsis score): compared to the control group; for clinical score (murine sepsis score): after LPC at 24, 48, 72 and 96 hours; for temperature after LPC: rectal temperature, 24 hours after surgery", "procedure": "The purpose of this study is to evaluate the effect of administration of compounds according to the invention (I-A and I-B) on the survival rate of mice in a caecal ligation and puncture (LPC) induced sepsis model.\nThe study consists of creating a sepsis model in mice by caecal ligation and puncture (LPC) and evaluating the impact of compounds I-A and I-B on the development of sepsis for 4 days.\nThe test compounds are administered at 185 mg/kg, intraperitoneally, immediately after the LPC procedure, and then once daily at 24, 48, and 72 hours. The remaining mice are euthanized at 96 hours post-LPC. Vehicle (physiological buffer) is used as a control and administered under the same conditions.\nMice are anesthetized with 3% Vetoflurane. A laparotomy is performed to exteriorize the caecum. For induction of medium grade sepsis, the caecum is ligated between the distal pole and the base of the caecum. A through puncture with a 21-gauge needle is performed. A small amount of excreta is extruded from the mesenteric and antimesenteric penetration holes to ensure patency. The caecum is repositioned over the abdominal cavity. The peritoneum, fascia, abdominal musculature and then the skin are closed by applying simple sutures. The animals are resuscitated by injecting pre-warmed normal saline (37° C.; 5 ml per 100 g body weight) subcutaneously.\nAdministration of Compound I-A at 185 mg/kg, Compound I-B at 185 mg/kg and vehicle (physiological buffer) is performed intraperitoneally immediately after LPC surgery and then once daily at 24, 48 and 72 hours post LPC.\nSurvival is assessed every 12 hours for the first two days, then once a day until euthanasia.\nRectal temperature is checked every 2 to 4 hours for the first day, then twice for the second day.\nThese two parameters are monitored once a day.\nThe clinical score is defined according to the criteria defined in Table 3:\n24 hours after surgery, mice were anesthetized with Vetoflurane and blood was collected from the retroorbital sinus to quantify the bacterial load. Bacterial DNA (16S) is extracted and quantified by RT-PCR."}, "[2]": {"test_system": "Pseudomonas aeruginosa PAO1", "experiment": "Mouse model of respiratory tract infection induced by Pseudomonas aeruginosa PAO1, bacterial load", "assay_type": "in vivo, mice", "settings": "day 5 post infection, I-A 185 mg/kg i.p., ciprofloxacin 2 mg/kg i.p., once a day", "procedure": "The vehicle (physiological buffer) is used as a control and is administered under the same conditions.\nIn each group, the bacterial load in the blood and lungs is assessed on day 5 post infection.\nLeukopenia is induced by intraperitoneal injections of cyclophosphamide 4 days and 1 day before infection, with doses of 150 mg/kg and 100 mg/kg, respectively. P. aeruginosa PAO1 was obtained from ATCC. One vial is thawed and diluted in sterile PBS on the day of infection.\nBacterial load is assessed in blood and lungs on day 5. Quantitative cultures on agar gel are performed during 24 hours of incubation at 37° C. Viable bacterial colony counts are expressed as Log 10 CFU per mL of blood or per gram of organ."}, "Escherichia coli": {"test_system": "Escherichia coli", "experiment": "Non-lethal model of Escherichia coli induced pneumonia, bacterial culture in the spleen", "assay_type": "in vivo, BALB/c mice", "settings": "for bacteria in the spleen: pre-treatment 185 mg/kg", "procedure": "The purpose of this study is to evaluate the effect of pre-treatment, with an NAD precursor, on the spread of bacterial infection to the spleen in a mouse model of non-lethal Escherichia coli (E. coli) induced pneumonia.\nThe administration of the compound at 185 mg/kg and the vehicle (physiological buffer) is performed intraperitoneally and/or intratracheally.\nThe compound of formula I-A (white powder) is dissolved in the vehicle. The solution is used at room temperature for a maximum of 1 day and freshly prepared for each new experiment.\nImmediately before use, the E. coli culture was washed twice with 0.9% NaCl. After the second wash, the pellet was re-suspended in sterile saline and the dose calibrated by nephelometry.\nFemale BALB/c mice (20-24 g) were then inoculated using intratracheal insertion of a gavage needle (24 G) for injection of 75 μL of the bacterial suspension.\nThe compound of formula I-A and the vehicle are administered to the animals intraperitoneally and/or intratracheally. The injection of the compound of formula I-A is performed 24 hours prior to the infection with Escherichia coli. Simulated animals are given a physiological buffer by intraperitoneal administration.\nAt 24 hours, 48 hours, and 72 hours postoperatively, spleens from sacrificed animals were weighed and homogenized in 1 mL of saline. These solutions were then used for quantitative agar gel cultures during 24 hours of incubation at 37° C. Viable bacterial colony counts are expressed as Log 10 CFU per gram of organ."}}, "data": [{"compound": "NC(=O)c1ccc[n+]([C@H]2O[C@H](COP(=O)([O-])O)[C@@H](O)[C@H]2O)c1", "note": "[Compound I-B]", "values": [{"measurement": "survival rate", "setting": "[1]; 185 mg/kg i.p.", "result": "improved"}, {"measurement": "Number of surviving mice", "setting": "[1]; 24 h after LPC", "result": "12/12"}, {"measurement": "bacterial load in the blood (bacterial DNA 16S by RT-PCR)", "setting": "[1]", "result": "significantly decreased"}, {"measurement": "Number of surviving mice", "setting": "[1]; 48 h after LPC", "result": "9/12"}, {"measurement": "Number of surviving mice", "setting": "[1]; 72 h after LPC", "result": "8/12"}, {"measurement": "Number of surviving mice", "setting": "[1]; 96 h after LPC", "result": "6/12"}, {"measurement": "clinical score (murine sepsis score)", "setting": "[1]", "result": "very significantly improved"}, {"measurement": "weight loss", "setting": "[1]; after LPC over 24-96 hours, 185 mg/kg i.p.", "result": "the weight loss is less"}, {"measurement": "temperature after LPC", "setting": "[1]; 185 mg/kg i.p.", "result": "regain their basal temperature"}]}, {"compound": "NC(=O)c1ccc[n+]([C@@H]2O[C@H](COP(=O)([O-])O)[C@@H](O)[C@H]2O)c1", "note": "[Compound I-A]", "values": [{"measurement": "reduction of blood bacterial load compared to the vehicle group", "setting": "[2]", "result": "approximately 2 log"}, {"measurement": "pulmonary bacterial load", "setting": "[2]; compared with the vehicle group", "result": "antibacterial effect"}, {"measurement": "percentage of animals with bacteria in the spleen", "setting": "Escherichia coli; after 24 hours, compared to the control group", "result": "greatly reduced"}, {"measurement": "percentage of positive bacterial culture in the spleen", "setting": "Escherichia coli; pre-treatment 185 mg/kg 24 hours prior to infection, intraperitoneal administration, compared to untreated mice (control)", "result": "reduced the percentage of positive cultures in the spleen"}, {"measurement": "bacteria in the spleen", "setting": "Escherichia coli; 48 h after intraperitoneal administration", "result": "no bacteria were found in the spleen"}, {"measurement": "bacteria in the spleen", "setting": "Escherichia coli; 72 h after intratracheal administration", "result": "no bacteria were found in the spleen"}, {"measurement": "spread of bacteria from the lungs to the spleen", "setting": "Escherichia coli; pre-treatment, intraperitoneal and/or intratracheal administration", "result": "prevented the spread of bacteria from the lungs to the spleen"}, {"measurement": "survival rate", "setting": "[1]; 185 mg/kg i.p.", "result": "improved"}, {"measurement": "Number of surviving mice", "setting": "[1]; 24 h after LPC", "result": "12/12"}, {"measurement": "bacterial load in the blood (bacterial DNA 16S by RT-PCR)", "setting": "[1]", "result": "significantly decreased"}, {"measurement": "Number of surviving mice", "setting": "[1]; 48 h after LPC", "result": "11/12"}, {"measurement": "Number of surviving mice", "setting": "[1]; 72 h after LPC", "result": "10/12"}, {"measurement": "Number of surviving mice", "setting": "[1]; 96 h after LPC", "result": "9/12"}, {"measurement": "clinical score (murine sepsis score)", "setting": "[1]", "result": "very significantly improved"}, {"measurement": "temperature after LPC", "setting": "[1]; 185 mg/kg i.p.", "result": "regain their basal temperature"}]}]}
